Measured values: ChEMBL document CHEMBL5113392, “Novel hybrid pyrrolidinedione-thiazolidinones as potential anticancer agents: Synthesis and biological evaluation” (Eur J Med Chem, 2022)
Active and inactive are the calls of the source. The rule behind the calls is not given here.

What was measured:
Jurkat [1] = assay: Induction of apoptosis in human Jurkat cells assessed as decrease in Bcl-2 level at 1.5 uM for 24 hrs by Western blot analysis; type: functional, cell-based
Jurkat [2] = assay: Induction of DNA damage in human Jurkat cells assessed as olive tail moment at 1.5 uM incubated for 24 hrs by alkaline Comet assay; type: functional
HCT-116 [3] = assay: Induction of DNA damage in human HCT-116 […] assessed as tail DNA at 1 uM incubated for 2 hrs in dark by Comet assay; type: functional
[4] = Selectivity index, ratio of GI50 for human HaCaT cells to GI50 for human HeLa cells; type: toxicity; conditions: HaCaT cells versus HeLa cells, read-out: RatioGI50
MDA-MB-231 = assay: Anticancer activity against human MDA-MB-231 cells assessed as lethality incubated for 48 hrs by SRB assay; type: functional; conditions: read-out: LC50 (the source's name)
Jurkat [5] = assay: Induction of apoptosis in human Jurkat cells assessed as increase in cleaved capase-3 level at 1.5 uM for 24 hrs by Western blot analysis; type: functional, cell-based
Lymphocyte [6] = assay: Induction of DNA damage in mitogen activated human peripheral blood lymphocytes assessed as olive tail moment at 1.5 uM incubated for 24 hrs by alkaline Comet assay; type: toxicity, cell-based
HCT-116 [7] = assay: Induction of DNA damage in human HCT-116 cells assessed as tail DNA at 1 uM incubated for 2 hrs by alkaline Comet assay; type: functional
SK-MEL-5 [8] = assay: Anticancer activity against human SK-MEL-5 cells assessed as total growth inhibition incubated for 48 hrs by SRB assay; type: functional
A549 = assay: Anticancer activity against human A549 cells assessed as growth inhibition incubated for 48 hrs by SRB assay; type: functional
Jurkat [9] = assay: Induction of apoptosis in human Jurkat cells assessed as increase in Bax level at 1.5 uM for 24 hrs by Western blot analysis; type: functional, cell-based
KM12 [10] = assay: Anticancer activity against human KM12 cells assessed as total growth inhibition incubated for 48 hrs by SRB assay; type: functional
Jurkat [11] = assay: Induction of DNA damage in human Jurkat cells assessed as tail DNA at 1.5 uM incubated for 24 hrs by alkaline Comet assay; type: functional
HCT-116 [12] = assay: Induction of DNA damage in human HCT-116 cells assessed as olive tail moment at 1 uM incubated for 2 hrs by alkaline Comet assay; type: functional
CAKI-1 = assay: Anticancer activity against human CAKI-1 cells assessed as inhibition of cell growth at 10 uM incubated for 48 hrs by SRB assay; type: functional; conditions: CAKI-1, 48 h, values are per cent of control
OVCAR-5 = assay: Anticancer activity against human OVCAR-5 cells assessed as lethality incubated for 48 hrs by SRB assay; type: functional; conditions: read-out: LC50 (the source's name)
SK-MEL-5 [13] = assay: Anticancer activity against human SK-MEL-5 cells assessed as growth inhibition incubated for 48 hrs by SRB assay; type: functional
Jurkat [14] = assay: Induction of DNA damage in human Jurkat cells assessed as proapoptotic inter-nucleosomal fragmentation at 1.5 uM for 24 hrs by Agarose gel electrophoresis analysis; type: functional, cell-based
ACHN = assay: Anticancer activity against human ACHN cells assessed as lethality incubated for 48 hrs by SRB assay; type: functional; conditions: read-out: LC50 (the source's name)
HCT-116 [15] = assay: Induction of DNA damage in human HCT-116 cell lysate assessed as olive tail moment at 1 uM incubated for 2 hrs in dark by Comet assay; type: functional
DU-145 = assay: Anticancer activity against human DU-145 cells assessed as total growth inhibition incubated for 48 hrs by SRB assay; type: functional
Salmon testes DNA [16] = assay: Binding affinity to double stranded salmon sperm DNA assessed as increase in DNA oxidation level by measuring net change in absorbance at 10 uM incubated for 1 hr by UV based spectroscopic method; type: nucleic-acid assay; conditions: Salmo salar
KM12 [17] = assay: Anticancer activity against human KM12 cells assessed as inhibition of cell growth at 10 uM incubated for 48 hrs by SRB assay; type: functional; conditions: KM12, 48 h, values are per cent of control
786-0 = assay: Anticancer activity against human 786-0 cells assessed as lethality incubated for 48 hrs by SRB assay; type: functional; conditions: read-out: LC50 (the source's name)
Salmon testes DNA [18] = assay: Binding affinity to single stranded salmon sperm DNA assessed as increase in DNA oxidation level by measuring net change in absorbance at 10 uM incubated for 1 hr by UV based spectroscopic method; type: nucleic-acid assay; conditions: Salmo salar
SK-MEL-5 [19] = assay: Anticancer activity against human SK-MEL-5 cells assessed as lethality incubated for 48 hrs by SRB assay; type: functional; conditions: read-out: LC50 (the source's name)
Lymphocyte [20] = assay: Induction of DNA damage in mitogen activated human peripheral blood lymphocytes assessed as tail DNA at 1.5 uM incubated for 24 hrs by alkaline Comet assay; type: toxicity, cell-based
Jurkat [21] = assay: Induction of DNA damage in human Jurkat cells assessed as tail DNA at 3.5 uM incubated for 24 hrs by alkaline Comet assay; type: functional
Jurkat [22] = assay: Induction of apoptosis in human Jurkat cells assessed as increase in cleaved capase-3 level at 3.5 uM for 24 hrs by Western blot analysis; type: functional, cell-based
Jurkat [23] = assay: Induction of DNA damage in human Jurkat cells assessed as proapoptotic inter-nucleosomal fragmentation at 3.5 uM for 24 hrs by Agarose gel electrophoresis analysis; type: functional, cell-based
Lymphocyte [24] = assay: Induction of DNA damage in mitogen activated human peripheral blood lymphocytes assessed as tail DNA at 3.5 uM incubated for 24 hrs by alkaline Comet assay; type: toxicity, cell-based
NCI-H522 = assay: Anticancer activity against human NCI-H522 cells assessed as inhibition of cell growth at 10 uM incubated for 48 hrs by SRB assay; type: functional; conditions: NCI-H522, 48 h, values are per cent of control
Jurkat [25] = assay: Induction of apoptosis in human Jurkat cells assessed as increase in Bax level at 3.5 uM for 24 hrs by Western blot analysis; type: functional, cell-based
Jurkat [26] = assay: Induction of DNA damage in human Jurkat cells assessed as olive tail moment at 3.5 uM incubated for 24 hrs by alkaline Comet assay; type: functional
OVCAR-3 = assay: Anticancer activity against human OVCAR-3 cells assessed as inhibition of cell growth at 10 uM incubated for 48 hrs by SRB assay; type: functional; conditions: OVCAR-3, 48 h, values are per cent of control
Jurkat [27] = assay: Induction of apoptosis in human Jurkat cells assessed as decrease in Bcl-2 level at 3.5 uM for 24 hrs by Western blot analysis; type: functional, cell-based
Lymphocyte [28] = assay: Induction of DNA damage in mitogen activated human peripheral blood lymphocytes assessed as olive tail moment at 3.5 uM incubated for 24 hrs by alkaline Comet assay; type: toxicity, cell-based

With `O=C1CC(N2C(=O)/C(=C/C(Cl)=C/c3ccc([N+](=O)[O-])cc3)SC2=S)C(=O)N1c1ccc(O)cc1` (stereo not given) the Activity (Jurkat [1]) was “Active”, the Activity (Jurkat [2]) was 8.63% and the Activity (HCT-116 [3]) was 13.1%. The selectivity ratio [4] was 12, the CC50 (MDA-MB-231) was 15.9 µM and the Activity (Jurkat [5]) was “Active”. It also gave an Activity (Lymphocyte [6]) of 0.28%, an Activity (HCT-116 [7]) of 26.5% and a TGI (SK-MEL-5 [8]) of 3.66 µM. For the same compound, the GI50 (A549) was 3.11 µM, the Activity (Jurkat [9]) was “Active” and the TGI (KM12 [10]) was 4.64 µM. For the same compound, the Activity (Jurkat [11]) was 53.4%, the Activity (HCT-116 [12]) was 9.84% and the growth, % of control at 10 µM (CAKI-1) was -71.4%. For the same compound, the CC50 (OVCAR-5) was 7.16 µM, the GI50 (SK-MEL-5 [13]) was 1.92 µM and the Activity (Jurkat [14]) was “Active”. The CC50 (ACHN) was 5.59 µM, the Activity (HCT-116 [15]) was 3.05% and the TGI (DU-145) was 3.37 µM. For the same compound, the Activity (Salmon testes DNA [16]) was “Active”, the growth, % of control at 10 µM (KM12 [17]) was -72.4% and the CC50 (786-0) was 25.5 µM. The Activity (Salmon testes DNA [18]) was “Active”, the CC50 (SK-MEL-5 [19]) was 6.97 µM and the Activity (Lymphocyte [20]) was 2.92%.

`O=C1CC(N2C(=O)/C(=C/C(Cl)=C/c3ccc([N+](=O)[O-])cc3)SC2=S)C(=O)N1c1ccc(Cl)cc1` (stereo not given) gave an Activity (Jurkat [21]) of 48.35%, a selectivity ratio [4] of 15 and a CC50 (MDA-MB-231) greater than 100 µM. The Activity (Jurkat [22]) was “Active”, the Activity (Jurkat [23]) was “Active” and the Activity (Lymphocyte [24]) was 4.25%. For the same compound, the growth, % of control at 10 µM (NCI-H522) was -26.4%, the Activity (Jurkat [25]) was “Active” and the GI50 (SK-MEL-5 [13]) was 1.95 µM. For the same compound, the Activity (Jurkat [26]) was 18.1%, the growth, % of control at 10 µM (OVCAR-3) was -35.4% and the Activity (Jurkat [27]) was “Active”. The Activity (Lymphocyte [28]) was 0.86%.
